Reference: publication PMC12709424, “Markovian state models uncover casein kinase 1 dynamics that govern circadian period” (Biophysical Journal, 2025)

Tests used:
CK1 [1] = test: 32P-ATP time course kinase assay, PER3 FASP-like peptides; type: biochemical, human; settings: 32P-ATP time course, 200 μM peptide, 200 nM CK1 (unprimed), 750 μM ATP, 30°C, pH 7.5; four independent assays; Fig. S15E, F
Method: (§1) PER FASP region peptides were synthesized and purified to 95% or higher (SABio). Two independent reaction mixtures of 50 μL containing 200 μM of the FASP or in reaction buffer (25 mM Tris (pH 7.5), 7.5 mM MgCl2, 1 mM DTT, and 0.1 mg/mL BSA) were preincubated for 5 min with or without 20 nM CK1 (for primed FASP) or 200 nM CK1 (for unprimed FASP) and the reaction was started by addition of 750 μM of UltraPure ATP (Promega) containing 1–2 μCi of ɣ-^32p ATP (PerkinElmer). After incubation of the reaction mix at 30°C, an 8-μL aliquot of the reaction mix was transferred to P81 phosphocellulose paper (Reaction Biology Corp) at the indicated timepoints. […] The air-dried P81 paper was counted for Pi incorporation using a scintillation counter (PerkinElmer) by Cherenkov counting. […]
(§2) To map binding sites on the surface of CK1, we employed FTMap, a fast computational approach that uses small organic probes to identify consensus sites (or pockets) that are likely to bind drug -like molecules. We submitted a series of conformations representative of the most populated MSM states to the FTMap server (https://ftmap.bu.edu/) and analyzed the results with FTProd. […] Tables S7 and S8 describe the consensus sites (CS) detected for WT and tau conformations, respectively. When a site is detected (colorful cells), it contains a score based on (1 picture or pasted object on this page, not shown here)

CK1 D132A = test: 32P-ATP time course kinase assay, CK1 D132A compared with WT; type: biochemical, human; settings: 200 μM peptide, 30°C, pH 7.5, four independent assays
Method: as §1
as §2, with “(1 picture or pasted object on this page, not shown here)” left out

[2] = target: Human CK1δ catalytic domain (CK1, residues 1–317), wild type (human) (UniProt P48730)
UniProt P48730, sequence (P48730 other isoform, or with tags, fused parts or gaps mutant): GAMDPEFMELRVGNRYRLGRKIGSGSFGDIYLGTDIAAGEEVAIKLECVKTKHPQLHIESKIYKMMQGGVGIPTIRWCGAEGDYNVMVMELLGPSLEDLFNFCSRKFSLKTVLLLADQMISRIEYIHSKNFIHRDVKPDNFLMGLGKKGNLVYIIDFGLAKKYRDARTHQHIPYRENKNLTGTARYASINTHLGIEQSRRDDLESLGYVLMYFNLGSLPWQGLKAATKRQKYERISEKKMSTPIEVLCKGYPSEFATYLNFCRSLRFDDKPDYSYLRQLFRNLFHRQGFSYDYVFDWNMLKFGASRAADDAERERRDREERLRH

CK1 [3] = settings: cited from earlier work
Excerpt: Here, we further tested our model by introducing a lysine at the −3 position and a glutamate at the −1 position of PER3 FASP-like peptides (A610K/L612E) to mimic the PER2 FASP priming region and rescue priming activity. These mutant peptides were used in a ^32P-ATP time course kinase assay ...

In the case of “RKKKPSTDIEGGAAR TLSTKAESVAAGIAQ [A610K/L612E (priming only), PER3 KAE peptide with serine residues downstream of the priming site mutated to alanine]”, the “CK1 activity in presence of −3K and −1E (in words)” value (CK1 [1]) is reported as “increase in CK1 activity”.

In the case of “RKKKPSTDIEGGAART LSTKAESVASGISQ [A610K/L612E, PER3 FASP-like peptide with −3K and −1E (A610K/L612E)]”, the “CK1 activity in presence of −3K and −1E (in words)” value (CK1 [1]) is reported as “increase in CK1 activity”.

In the case of “RKKKTEVSAHLSSLTL PGKAEpSVVSLTSQ [primed FASP peptide, synthetic mouse PER2 FASP peptide, pS659 primed]”, the “activity of CK1 D132A compared with CK1 WT on primed FASP (in words)” value (CK1 D132A; 20 nM CK1, 750 μM ATP, Fig. S15C) is reported as “more modest effect”.

For “RKKKTEVSAHLSSLTLP GKAESVVSLTSQ [unprimed FASP peptide, synthetic mouse PER2 FASP peptide, unprimed]”, the “activity of CK1 D132A compared with CK1 WT on unprimed FASP (in words)” value (CK1 D132A; 200 nM CK1, 750 μM ATP, Fig. S15B) was “dramatic loss in activity”.

With “human PER2 FASP peptide, alanine at position −1 (E661) in the “priming only” (S665A) background” the fold change of the apparent Michaelis-Menten constant (KMapp) against the WT “priming only” substrate, ADP-Glo substrate titration [2] was 10 fold.

For “human PER2 FASP peptide, alanine at position −3 (K659) in the “priming only” (S665A) background”, the fold change of the apparent Michaelis-Menten constant (KMapp) against the WT “priming only” substrate, ADP-Glo substrate titration [2] was 10 fold.

With “human PER2 FASP peptide, “priming only” (S665A)” the apparent Michaelis-Menten constant (KMapp) of CK1 priming activity, ADP-Glo substrate titration (200 nM CK1, 100 μM ATP, room temperature, 1 h) [2] was 210 µM.

B1: PER3: PER homolog within the circadian system (protein, UniProt P56645 1-1201, looked up)
Period circadian protein …: MPRGEAPGPGRRGAKDEALGEESGERWSPEFHLQRKLADSSHSEQQDRNRVSEELIMVVQEMKKYFPSERRNKPSTLDALNYALRCVHSVQANSEFFQILSQNGAPQADVSMYSLEELATIASEHTSKNTDTFVAVFSFLSGRLVHISEQAALILNRKKDVLASSHFVDLLAPQDMRVFYAHTARAQLPFWNNWTQRAARYECAPVKPFFCRIRGGEDRKQEKCHSPFRIIPYLIHVHHPAQPELESEPCCLTVVEKIHSGYEAPRIPVNKRIFTTTHTPGCVFLEVDEKAVPLLGYLPQDLIGTSILSYLHPEDRSLMVAIHQKVLKYAGHPPFEHSPIRFCTQNGDYIILDSSWSSFVNPWSRKISFIIGRHKVRTSPLNEDVFATKIKKMNDNDKDITELQEQIYKLLLQPVHVSVSSGYGSLGSSGSQEQLVSIASSSEASGHRVEETKAEQMTLQQVYASVNKIKNLGQQLYIESMTKSSFKPVTGTRTEPNGGGECKTFTSFHQTLKNNSVYTEPCEDLRNDEHSPSYQQINCIDSVIRYLKSYNIPALKRKCISCTNTTSSSSEEDKQNHKADDVQALQAGLQIPAIPKSEMPTNGRSIDTGGGAPQILSTAMLSLGSGISQCGYSSTIVHVPPPETARDATLFCEPWTLNMQPAPLTSEEFKHVGLTAAVLSAHTQKEEQNYVDKFREKILSSPYSSYLQQESRSKAKYSYFQGDSTSKQTRSAGCRKGKHKRKKLPEPPDSSSSNTGSGPRRGAHQNAQPCCPSAASSPHTSSPTFPPAAMVPSQAPYLVPAFPLPAATSPGREYAAPGTAPEGLHGLPLSEGLQPYPAFPFPYLDTFMTVFLPDPPVCPLLSPSFLPCPFLGATASSAISPSMSSAMSPTLDPPPSVTSQRREEEKWEAQSEGHPFITSRSSSPLQLNLLQEEMPRPSESPDQMRRNTCPQTEYCVTGNNGSESSPATTGALSTGSPPRENPSHPTASALSTGSPPMKNPSHPTASALSTGSPPMKNPSHPTASTLSMGLPPSRTPSHPTATVLSTGSPPSESPSRTGSAASGSSDSSIYLTSSVYSSKISQNGQQSQDVQKKETFPNVAEEPIWRMIRQTPERILMTYQVPERVKEVVLKEDLEKLESMRQQQPQFSHGQKEELAKVYNWIQSQTVTQEIDIQACVTCENEDSADGAATSCGQVLVEDSC
In the case of B1, the “CK1 substrate status (in words)” value (CK1 [3]) is listed as “does not appear to be a substrate of the kinase”.
